# Measured values as given in patent US20250270180A1, “MEK INHIBITORS AND THERAPEUTIC USES THEREOF” (Immuneering Corporation, priority 2020, published 2025).
# Where two headings read alike, the source gives them in different places.
# How the values were obtained:
# CYP450 2C8 = target: T1, CYP450 2C8 (Homo sapiens, UniProt P10632); experiment: CYP450 panel, 2C8; settings: 10 μM; substrate amodiaquine
# T1 sequence (P10632 1-490): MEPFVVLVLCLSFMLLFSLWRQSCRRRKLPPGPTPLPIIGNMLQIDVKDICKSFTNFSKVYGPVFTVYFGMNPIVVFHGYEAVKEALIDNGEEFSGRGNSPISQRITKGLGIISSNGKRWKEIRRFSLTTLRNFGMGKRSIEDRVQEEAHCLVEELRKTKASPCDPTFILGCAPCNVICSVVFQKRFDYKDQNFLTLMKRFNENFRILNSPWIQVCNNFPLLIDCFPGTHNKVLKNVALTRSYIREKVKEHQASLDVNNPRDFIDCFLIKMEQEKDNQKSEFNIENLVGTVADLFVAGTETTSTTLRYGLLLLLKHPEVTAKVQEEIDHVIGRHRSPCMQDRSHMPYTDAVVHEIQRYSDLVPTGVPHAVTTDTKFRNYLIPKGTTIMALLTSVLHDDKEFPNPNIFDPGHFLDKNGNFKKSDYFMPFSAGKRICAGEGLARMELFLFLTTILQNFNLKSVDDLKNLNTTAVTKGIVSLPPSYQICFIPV
# CYP450 2D6 = CYP450 2D6 (Homo sapiens, UniProt P10635); experiment: CYP450 panel, 2D6; settings: 10 μM; substrate dextromethophan
# Colon-26 KRAS-G12D tumor = experiment: Colon-26 model (KRAS G12D CRC): efficacy & safety; type: in vivo; settings: Colon-26 KRAS-G12D in Balb/c
# Experimental: Female athymic BALB/c nude or BALB/c mice (Beijing Vital River Laboratory Animal Technology Co., Ltd.), approximately 8-10 weeks old were used in these studies. Animals were maintained in individually vented cages on a 12-h light-dark cycle. Food and water were available ad libitum. The Colon-26 tumor cells were maintained in vitro with RPMI1640 medium supplemented with 10% fetal bovine serum at 37° C. in an atmosphere of 5% CO2 in air. The cells in exponential growth phase were harvested and quantitated by cell counter before tumor inoculation. Each mouse was inoculated subcutaneously in the right flank region with Colon-26 tumor cells (5×10^5) in 0.1 mL of PBS. Randomization was started when the mean tumor size reached approximately 125 mm3. A total of 84 tumor-bearing mice were enrolled in the study and allocated into 7 treatment groups (12 mice per group). Also 12 non-tumor-bearing mice were assigned as un-treated group.
# Animals were treated with either vehicle (10% DMSO/90% [20% SBE-β-CD in saline], pH 5) or vehicle containing compounds at the indicated doses by gavage (p.o.) twice daily for approximately 28-42 days (BID x 28-42 p.o.), or to ethical endpoints (BWL>20%; Median Tumor Volume (MTV)>2000 mm3; Individual TV>3000 mm3; clinical signs of unwell). Clinical signs of unwell was characterized, but not limited to the following. Severe dehydration, hypothermia, abnormal/labored respiration, lethargy, obvious pain, diarrhea, skin lesions, neurological symptoms, impaired mobility (not able to eat or drink) due to significant ascites and enlarged abdomen, astasia, continuous prone or lateral position, signs of muscular atrophy, paralytic gait, clonic convulsions, tonic convulsions, persistent bleeding from body orifice. Dosing as well as tumor and body weight measurements were conducted in a Laminar Flow Cabinet.
# Animals were checked daily for morbidity and mortality. During routine monitoring, the animals were checked for any effects of tumor growth and treatments on behavior such as mobility, food and water consumption, body weight gain/loss (body weights were measured twice per week after randomization), eye/hair matting and any other abnormalities. Mortality and observed clinical signs were recorded for individual animals in detail.
# Tumor volumes were measured twice per week after randomization in two dimensions using a caliper, and the volume was expressed in mm3 using the formula: V=(L×W×W)/2, where V is tumor volume, L is tumor length (the longest tumor dimension) and W is tumor width (the longest tumor dimension perpendicular to L). Results were presented as the median tumor volume, expressed in mm3+/−interquartile range, of each group. Tumor Growth Inhibition; TGI %=[1−(Ti/(Ci)]×100; where Ti as the median tumor volume of the treatment group on the measurement day, Ci as the median tumor volume of control group at the measurement day.
# [1] = Pharmacokinetics, single dose, 2-hour tissue levels in Colon26 tumor bearing mice; type: in vivo; settings: female, athymic BALB/c nude or BALB/c, mouse, po, single dose 100 mg/kg p.o., 2-hour post dose
# Experimental: Female mice (either athymic BALC/c nude, or BALB/c mice) were inoculated with a single subcutaneous injection of 0.2 ml of mouse Colon-26 cell suspension (1×10^5 cells per animal) in the inguinal region. Colon26 (C26) tumor bearing mice received a single dose (3 mice/treatment) of vehicle (10% DMSO/90% [20% SBE-β-CD in saline], pH 5) containing compounds at 100 mg/kg by gavage (p.o.) and 2-hour post dose humanely euthanized.
# Blood was obtained through cardiac puncture into K+EDTA tubes, mixed by inversion and centrifuged to obtain the plasma. Tissues were excised, cleaned of surrounding tissues. All samples immediately snap frozen in liquid N2 prior to LC-MS/MS analysis (using Waters HSS T3 2.1×50 mm (1.8 um) LC column, and an API-6500 Electrospray MS unit).
# CYP450 2B6 = target: T2, CYP450 2B6 (Homo sapiens, UniProt P20813); experiment: CYP450 panel, 2B6; settings: 10 μM; substrate bupropion
# T2 sequence (P20813 1-491): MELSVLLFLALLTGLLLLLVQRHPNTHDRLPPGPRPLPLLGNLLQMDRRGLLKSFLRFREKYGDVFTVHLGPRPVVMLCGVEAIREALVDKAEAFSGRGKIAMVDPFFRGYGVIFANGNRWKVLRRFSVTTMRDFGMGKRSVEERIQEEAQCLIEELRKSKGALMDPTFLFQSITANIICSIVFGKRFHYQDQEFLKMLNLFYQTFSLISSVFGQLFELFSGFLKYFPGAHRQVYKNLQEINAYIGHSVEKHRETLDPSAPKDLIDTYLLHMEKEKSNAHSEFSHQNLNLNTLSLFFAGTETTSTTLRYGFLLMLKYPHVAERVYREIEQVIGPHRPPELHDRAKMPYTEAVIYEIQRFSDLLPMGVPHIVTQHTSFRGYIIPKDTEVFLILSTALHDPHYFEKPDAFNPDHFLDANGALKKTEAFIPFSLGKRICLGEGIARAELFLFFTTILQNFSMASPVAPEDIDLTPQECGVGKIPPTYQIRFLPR
# CYP450 2C9 = CYP450 2C9 (Homo sapiens, UniProt P11712); experiment: CYP450 panel, 2C9; settings: 10 μM; substrate Diclofenac
# Sequence of CYP450 2C9 (P11712 whole entry): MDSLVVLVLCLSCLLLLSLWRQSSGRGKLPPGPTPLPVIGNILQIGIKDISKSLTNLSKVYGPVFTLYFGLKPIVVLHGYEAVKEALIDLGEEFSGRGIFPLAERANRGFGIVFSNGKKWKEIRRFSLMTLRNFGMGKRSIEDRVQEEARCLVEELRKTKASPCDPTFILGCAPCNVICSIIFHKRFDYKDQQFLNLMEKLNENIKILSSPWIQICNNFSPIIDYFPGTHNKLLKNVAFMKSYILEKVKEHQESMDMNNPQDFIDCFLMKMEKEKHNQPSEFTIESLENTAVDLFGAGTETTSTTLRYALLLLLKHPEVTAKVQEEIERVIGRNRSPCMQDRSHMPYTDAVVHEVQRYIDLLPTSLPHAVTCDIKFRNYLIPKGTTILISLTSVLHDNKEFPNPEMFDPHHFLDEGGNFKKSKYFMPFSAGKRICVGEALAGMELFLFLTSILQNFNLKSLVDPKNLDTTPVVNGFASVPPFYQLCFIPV
# Sequence of CYP450 2D6 (P10635 whole entry): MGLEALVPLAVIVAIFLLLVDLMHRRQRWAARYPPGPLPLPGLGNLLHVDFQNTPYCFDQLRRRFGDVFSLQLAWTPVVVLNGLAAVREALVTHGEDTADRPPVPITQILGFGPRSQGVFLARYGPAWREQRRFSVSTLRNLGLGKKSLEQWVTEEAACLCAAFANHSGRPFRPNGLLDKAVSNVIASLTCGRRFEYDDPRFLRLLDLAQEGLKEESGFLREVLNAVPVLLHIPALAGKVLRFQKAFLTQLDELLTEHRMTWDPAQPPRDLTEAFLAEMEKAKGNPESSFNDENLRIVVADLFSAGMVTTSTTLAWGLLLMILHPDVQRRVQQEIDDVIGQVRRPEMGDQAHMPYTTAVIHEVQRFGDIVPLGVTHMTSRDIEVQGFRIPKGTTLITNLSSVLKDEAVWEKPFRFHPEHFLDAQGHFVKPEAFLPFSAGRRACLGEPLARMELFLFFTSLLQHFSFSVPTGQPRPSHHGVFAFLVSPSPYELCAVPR
SMILES,2C8* (CYP450 2C8),2D6* (CYP450 2D6),BWL (Day 14) (Colon-26 KRAS-G12D tumor; 150 mg/kg BID po) [%],BWL (Day 17) (Colon-26 KRAS-G12D tumor; 150 mg/kg BID po) [%],TGI (Day 10) (Colon-26 KRAS-G12D tumor; 150 mg/kg BID po) [%],"concentration at 2 h ([1]; liver, read-out: Liver) [ng/g]","concentration at 2 h ([1]; muscle, read-out: Muscle) [ng/g]","concentration at 2 h ([1]; plasma, read-out: Plasma) [ng/mL]","concentration at 2 h ([1]; tumor, read-out: Tumor) [ng/g]",2B6* (CYP450 2B6),2C9* (CYP450 2C9),BWL (Day 14) (Colon-26 KRAS-G12D tumor; 50 mg/kg BID po) [%],BWL (Day 17) (Colon-26 KRAS-G12D tumor; 50 mg/kg BID po) [%],TGI (Day 10) (Colon-26 KRAS-G12D tumor; 50 mg/kg BID po) [%]
CNS(=O)(=O)Nc1cccc(Cc2c(CN(C)C)c3ccc(OC(=O)N(C)C)cc3oc2=O)c1F [Compound 9],4.0,−3.7,0,0,93.9,1260,363,407,1350,14.8,6.8,,,
"Cn1cnc2c(F)c(Nc3ccc(Br)cc3Cl)c(C(=O)NOCCO)cc21 [Reference 1, Selumetinib, reference compound]",18.9,5.0,,,,,,,,30.2,14.1,0,−2,60.0
"CNS(=O)(=O)Nc1nccc(Cc2c(C)c3ccc(Oc4ncccn4)cc3oc2=O)c1F [Reference 2, reference compound]",,3.4,,,,1990,550,5670,819,,,,,61.6
